Source: US20110038948A1, “Methods of Reducing the Production of Reactive Oxygen Species and Methods of Screening or Identifying Compounds and Compositions that Reduce the Production of Reactive Oxygen Species” (UNIVERSITY OF TENNESSEE RESEARCH FOUNDATION, priority 2005, published 2011)

Experiments:
3T3-L1 adipocytes = experiment: Mitochondrial membrane potential (JC-1); type: cell-based, mouse; settings: H2O2 100 nmol/L, 48 hours
Experimental: (§1) 3T3-L1 preadipocytes were incubated at a density of 8000 cells/cm^2 (10 cm^2 dish) and grown in Dulbecco's modified Eagle's medium (DMEM) containing 10% FBS and antibiotics (adipocyte medium) at 37° C. in 5% CO2 in air. Confluent preadipocytes were induced to differentiate with a standard differentiation medium consisting of DMEM-F10 (1:1, vol/vol) medium supplemented with 1% FBS, 1 μM dexamethasone, IBMX (0.5 mM) and antibiotics (1% Penicillin-Streptomycin). Preadipocytes were maintained in this differentiation medium for 3 days and subsequently cultured in adipocyte medium. Cultures were re-fed every 2-3 days to allow 90% of cells to reach full differentiation before conducting chemical treatment. Chemicals were freshly diluted in adipocyte medium before treatment. […] Cell viability was measured via trypan blue exclusion.
Mitochondrial membrane potential was analyzed fluorometrically with a lipophilic cationic dye JC-1 (5,5′,6,6′-tetrachloro-1,1′,3,3′-tetraethylbenzimidazol carbocyanine iodide) using a mitochondrial potential detection kit (Biocarta, San Diego, Calif.). Mitochondrial potential was determined as the ratio of red fluorescence (excitation 550 nm, emission 600 nm) and green fluorescence (excitation 485 nm, emission 535 nm) using a fluorescence microplate reader.

cyclin A = experiment: Cyclin A expression in cultured adipocytes; type: cell-based, mouse; settings: compound plus glucose 30 mmol/L, 48 hours
Experimental: as §1, with “exclusion. Adipocyte 18s, cyclin A, NADPH oxidase, and UCP2 were quantitatively measured using a Smart Cycler Real Time PCR System (Cepheid, Sunnyvale, Calif.) with a TaqMan 1000 Core Reagent Kit (Applied Biosystems, Branchburg, N.J.). […] Reactions of quantitative RT-PCR for standards and unknown samples were also performed according to the instructions of Smart Cycler System (Cepheid, Sunnyvale, Calif.) and TaqMan Real Time PCR Core Kit (Applied Biosystems, Branchburg, N.J.). The mRNA quantitation for each sample was further normalized using the corresponding 18s quantitation.” for “exclusion.”

| Structure (SMILES) | increase in mitochondrial potential (3T3-L1 adipocytes) | effect on glucose stimulated cyclin A expression (cyclin A) |
| --- | --- | --- |
| OO [H2O2, hydrogen peroxide] | 72% | – |
| C=C1/C(=C\C=C2/CCC[C@]3(C)[C@@H]([C@H](C)CCCC(C)(C)O)CC[C@@H]23)C[C@@H](O)C[C@@H]1O [calcitriol, 1,25-(OH)2-D3] | – | augmented |
